In patent US20240400591A1 (Jacobio Pharmaceuticals Co., Ltd., priority 2021, published 2024):
Where two headings read alike, the source gives them in different places.

Assays:
[1] = biological target: T1, His-p53 Y220C (94-294) protein (Homo sapiens, UniProt P04637, Y220C); experiment: In vitro DNA binding assay (HTRF); assay type: biochemical; details: % activation normalized to 2 μM Ref-1a high control
T1 construct: His-p53 Y220C (94-294) protein

[2] = system: NUGC3 (P53 Y220C); experiment: Cell viability assay (CellTiter-Glo, 6 days), NUGC3; assay type: cell-based
How it was run: (§1)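 After a 6-day compound exposure following overnight plating, ATP luminescence (CellTiter-Glo) gave percent viability relative to DMSO-treated cells and cell-free medium controls. IC50 = concentration at 50% viability, from 4-parameter logistic or Excel fit.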

[3] = system: NUGC4 (P53 WT); experiment: Cell viability assay (CellTiter-Glo, 6 days), NUGC4; assay type: cell-based
How it was run: as §1

[4] = system: NUGC-3_P53_Luc single clonal cell line (p53 Y220C); experiment: Reporter gene assay (p53 RE luciferase); assay type: cell-based
How it was run: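 Luminescence normalised to DMSO-only (0%) and 10 μM Ref-1a (100%) wells gives % activity, fitted by 4-parameter logistic or Excel to yield EC50 at 50%. Reporter line: NUGC-3 with p53 response element-luc2P, compound-treated 6 h at 37 °C.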

[5] = Homo sapiens, NUGC-3, 144 h, cell viability, 6 days, CellTiter-Glo, read-out: NUGC3 (P53 Y220C) IC50
[6] = Homo sapiens, NUGC-4, 144 h, cell viability, 6 days, CellTiter-Glo, read-out: NUGC4 (P53 WT) IC50
[7] = Homo sapiens, NUGC-3, luciferase reporter, 6 hours, normalized to Ref-1a (10 μM) high control, read-out: p53(Y220C)_NUGC-3 EC50
[8] = Homo sapiens, NUGC-3, 6 h, luciferase reporter, 6 hours, normalized to Ref-1a (10 μM) high control, read-out: p53(Y220C)_NUGC-3 EC50
[9] = cell viability, 6 days, CellTiter-Glo, read-out: NUGC3 (P53 Y220C) IC50
[10] = cell viability, 6 days, CellTiter-Glo, read-out: NUGC4 (P53 WT) IC50
[11] = luciferase reporter, 6 hours, normalized to Ref-1a (10 μM) high control, read-out: p53(Y220C)_NUGC-3 EC50

COCCOCCNC(=O)c1ccc(NCC#Cc2sc3c(N[C@@H]4CCN(C)C[C@@H]4F)cccc3c2CC(F)(F)F)c(OC)c1 (racemic) [Example 96, 4-((3-(7-(((Z)-3-fluoro-1-methylpiperidin-4-yl)amino)-3-(2,2,2-trifluoroethyl)benzo[b]thiophen-2-yl)prop-2-yn-1-yl)amino)-3-methoxy-N-(2-(2-methoxyethoxy)ethyl)benzamide]
EC50 [1]: 103 nM
IC50 [2, 5]: 1.68 µM
IC50 [3, 6]: 9.93 µM
EC50 [4, 7]: 0.13 µM

COc1cc(P(C)(C)=O)ccc1NCC#Cc1sc2c(N[C@@H]3CCN(C4CCOCC4)C[C@@H]3F)cccc2c1CC(F)(F)F [Example 147, (4-((3-(7-(((3S,4R)-3-fluoro-1-(tetrahydro-2H-pyran-4-yl)piperidin-4-yl)amino)-3-(2,2,2-trifluoroethyl)benzo[b]thiophen-2-yl)prop-2-yn-1-yl)amino)-3-methoxyphenyl)dimethylphosphine oxide]
EC50 [1]: 91 nM
IC50 [2, 5]: 1.47 µM
IC50 [3, 6]: 6.83 µM
EC50 [4, 8]: 0.11 µM

COc1cc(P(=O)(C2CC2)C2CC2)ccc1NCC#Cc1sc2c(N[C@@H]3CCN(C)C[C@@H]3F)cccc2c1CC(F)(F)F (racemic) [Example 99, dicyclopropyl(4-((3-(7-(((Z)-3-fluoro-1-methylpiperidin-4-yl)amino)-3-(2,2,2-trifluoroethyl)benzo[b]thiophen-2-yl)prop-2-yn-1-yl)amino)-3-methoxyphenyl)phosphine oxide]
EC50 [1]: 87 nM
IC50 ([2]; Homo sapiens, NUGC-3, 144 h, read-out: NUGC3 (P53 Y220C) IC50 (μM)): 1.44 µM
IC50 ([3]; Homo sapiens, NUGC-4, 144 h, read-out: NUGC4 (P53 WT) IC50 (μM)): 6.58 µM
EC50 ([4]; Homo sapiens, NUGC-3, 6 h, read-out: p53(Y220C)_NUGC-3 EC50 (μM)): 0.15 µM

COc1cc([S@](C)(=N)=O)ccc1NCC#Cc1sc2c(N[C@@H]3CCN(C)C[C@@H]3F)cccc2c1CC(F)(F)F [Example 227, (R)-(4-((3-(7-(((3S,4R)-3-fluoro-1-methylpiperidin-4-yl)amino)-3-(2,2,2-trifluoroethyl)benzo[b]thiophen-2-yl)prop-2-yn-1-yl)amino)-3-methoxyphenyl)(imino)(methyl)-16-sulfanone]
EC50 [1]: 40 nM
IC50 [2, 9]: 0.28 µM
IC50 [3, 10]: 17.6 µM
EC50 [4, 11]: 0.04 µM

CNC(=O)c1ccc(NCC#Cc2sc3c(N[C@H]4CCN(C)C[C@H]4F)cccc3c2CC(F)(F)F)c(OC)c1 [Example 112, 4-((3-(7-(((3R,4S)-3-fluoro-1-methylpiperidin-4-yl)amino)-3-(2,2,2-trifluoroethyl)benzo[b]thiophen-2-yl)prop-2-yn-1-yl)amino)-3-methoxy-N-methylbenzamide]
EC50 [1]: 135 nM
IC50 [2, 5]: 2.09 µM
IC50 [3, 6]: 7.51 µM
EC50 [4, 8]: 0.27 µM

COc1cc([S@@](C)(=N)=O)ccc1NCC#Cc1sc2c(N[C@@H]3CCN(C)C[C@@H]3F)cccc2c1CC(F)(F)F [Example 226, (S)-(4-((3-(7-(((3S,4R)-3-fluoro-1-methylpiperidin-4-yl)amino)-3-(2,2,2-trifluoroethyl)benzo[b]thiophen-2-yl)prop-2-yn-1-yl)amino)-3-methoxyphenyl)(imino)(methyl)-16-sulfanone]
EC50 [1]: 39 nM
IC50 [2, 9]: 0.32 µM
IC50 [3, 10]: 19.4 µM
EC50 [4, 11]: 0.05 µM

CN1CC[C@@H](Nc2cccc3c(CC(F)(F)F)c(C#CCNc4ccc(P(C)(C)=O)cc4-c4ncon4)sc23)[C@@H](F)C1 [Example 213, (4-((3-(7-(((3S,4R)-3-fluoro-1-methylpiperidin-4-yl)amino)-3-(2,2,2-trifluoroethyl)benzo[b]thiophen-2-yl)prop-2-yn-1-yl)amino)-3-(1,2,4-oxadiazol-3-yl)phenyl)dimethylphosphine oxide]
EC50 [1]: 58 nM
IC50 [2, 5]: 0.37 µM
IC50 [3, 6]: 9.59 µM
EC50 [4, 7]: 0.22 µM

COc1cc(-c2ncn(C)n2)ccc1NCC#Cc1sc2c(N[C@@H]3CCN(C)C[C@@H]3F)cccc2c1CC(F)(F)F [Example 172, (3S,4R)-3-fluoro-N-(2-(3-((2-methoxy-4-(1-methyl-1H-1,2,4-triazol-3-yl)phenyl)amino)prop-1-yn-1-yl)-3-(2,2,2-trifluoroethyl)benzo[b]thiophen-7-yl)-1-methylpiperidin-4-amine]
EC50 [1]: 60 nM
IC50 [2, 5]: 1.51 µM
IC50 [3, 6]: 7.55 µM
EC50 [4, 7]: 0.18 µM

CCN1CC[C@H](Nc2cccc3c(CC(F)(F)F)c(C#CCNc4ccc(P(C)(C)=O)cc4OC)sc23)[C@H](F)C1 [Example 136, (4-((3-(7-(((3R,4S)-1-ethyl-3-fluoropiperidin-4-yl)amino)-3-(2,2,2-trifluoroethyl)benzo[b]thiophen-2-yl)prop-2-yn-1-yl)amino)-3-methoxyphenyl)dimethylphosphine oxide]
EC50 [1]: 46 nM
IC50 [2, 5]: 1.63 µM
IC50 [3, 6]: 4.88 µM
EC50 [4, 8]: 0.24 µM

CN1CC[C@@H](Nc2cccc3c(CC(F)(F)F)c(C#CCNc4ccc(P(C)(C)=O)cc4C(F)(F)F)sc23)[C@@H](F)C1 [Example 105, (4-((3-(7-(((3S,4R)-3-fluoro-1-methylpiperidin-4-yl)amino)-3-(2,2,2-trifluoroethyl)benzo[b]thiophen-2-yl)prop-2-yn-1-yl)amino)-3-(trifluoromethyl)phenyl)dimethylphosphine oxide]
EC50 [1]: 35 nM
IC50 [2, 5]: 1.83 µM
IC50 [3, 6]: 10 µM
EC50 [4, 8]: 0.2 µM

CNC(=O)c1ccc(NCC#Cc2sc3c(NC4CCN(C)CC4F)cccc3c2CC(F)(F)F)c(OC)n1 (centres unmarked) [Example 62, 5-((3-(7-(((Z)-3-fluoro-1-methylpiperidin-4-yl)amino)-3-(2,2,2-trifluoroethyl)benzo[b]thiophen-2-yl)prop-2-yn-1-yl)amino)-6-methoxy-N-methylpicolinamide]
EC50 [1]: 64 nM
IC50 [2, 9]: 1.43 µM
IC50 [3, 10]: 3.7 µM
EC50 [4, 11]: 0.34 µM

COc1cc(N2CCOCC2=O)ccc1NCC#Cc1sc2c(NC3CCN(C)CC3F)cccc2c1CC(F)(F)F (centres unmarked) [Example 192, 4-(4-((3-(7-((3-fluoro-1-methylpiperidin-4-yl)amino)-3-(2,2,2-trifluoroethyl)benzo[b]thiophen-2-yl)prop-2-yn-1-yl)amino)-3-methoxyphenyl)morpholin-3-one]
EC50 [1]: 34 nM
IC50 [2, 5]: 1.19 µM
IC50 [3, 6]: 7.61 µM
EC50 [4, 7]: 0.13 µM

COc1cc(P(C)(C)=O)ccc1NCC#Cc1sc2c(NC3CCN(C)CC3F)cccc2c1CC#N (racemic) [Example 107, 2-(2-(3-((4-(dimethylphosphoryl)-2-methoxyphenyl)amino)prop-1-yn-1-yl)-7-(((Z)-3-fluoro-1-methylpiperidin-4-yl)amino)benzo[b]thiophen-3-yl)acetonitrile]
EC50 [1]: 60 nM
IC50 [2, 5]: 7.25 µM
IC50 [3, 6]: 20.6 µM
EC50 [4, 7]: 0.96 µM

CN1CC[C@@H](Nc2cccc3c(CC(F)(F)F)c(C#CCNc4cc(F)c(P(C)(C)=O)cc4F)sc23)[C@@H](F)C1 (racemic) [Example 91, (2,5-difluoro-4-((3-(7-(((Z)-3-fluoro-1-methylpiperidin-4-yl)amino)-3-(2,2,2-trifluoroethyl)benzo[b]thiophen-2-yl)prop-2-yn-1-yl)amino)phenyl)dimethylphosphine oxide]
EC50 [1]: 102 nM
IC50 [2, 5]: 1.8 µM
IC50 [3, 6]: 9.41 µM
EC50 [4, 7]: 0.26 µM

COc1nc(P(C)(C)=O)ccc1NCC#Cc1sc2c(N[C@@H]3CCN(C)C[C@@H]3F)cccc2c1CC(F)(F)F [Example 153, (5-((3-(7-(((3S,4R)-3-fluoro-1-methylpiperidin-4-yl)amino)-3-(2,2,2-trifluoroethyl)benzo[b]thiophen-2-yl)prop-2-yn-1-yl)amino)-6-methoxypyridin-2-yl)dimethylphosphine oxide]
EC50 [1]: 31 nM
IC50 [2, 5]: 0.37 µM
IC50 [3, 6]: 4.07 µM
EC50 [4, 7]: 0.1 µM

CN1CC[C@@H](Nc2cccc3c(CC(F)(F)F)c(C#CCNc4ccc(P(C)(C)=O)cc4C#N)sc23)[C@@H](F)C1 [Example 211, 5-(dimethylphosphoryl)-2-((3-(7-(((3S,4R)-3-fluoro-1-methylpiperidin-4-yl)amino)-3-(2,2,2-trifluoroethyl)benzo[b]thiophen-2-yl)prop-2-yn-1-yl)amino)benzonitrile]
EC50 [1]: 52 nM
IC50 [2, 5]: 1.07 µM
IC50 [3, 6]: 11.3 µM
EC50 [4, 8]: 0.22 µM

COc1cc(P(C)(C)=O)ccc1NCC#Cc1sc2c(N[C@H]3CCN(C4CCOCC4)C[C@H]3F)cccc2c1CC(F)(F)F [Example 148, (4-((3-(7-(((3R,4S)-3-fluoro-1-(tetrahydro-2H-pyran-4-yl)piperidin-4-yl)amino)-3-(2,2,2-trifluoroethyl)benzo[b]thiophen-2-yl)prop-2-yn-1-yl)amino)-3-methoxyphenyl)dimethylphosphine oxide]
EC50 [1]: 147 nM
IC50 [2, 5]: 1.56 µM
IC50 [3, 6]: 3.08 µM
EC50 [4, 8]: 0.21 µM
